These results are taken from PubChem BioAssay AID1324 (NMMLSC, 2008).

The source made the active and inactive calls. No rule for the calls is given here.

The target of one assay is glutathione S-transferase (GST-GSH binding). In words: GST–glutathione interaction disruption – biochemical, multiplex beads, flow cytometry, HPSMTB buffer, profiling panel (AID 1324).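 Also: glutathione beads loaded with GST-green fluorescent protein and no fluorescent Bim peptide.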 To be noted: multiplex bead flow cytometry, MCF.
What is called EC50 is the concentration that produces a half-maximal response. `Cc1cccc(/C=N/N(CCO)C2=NS(=O)(=O)c3ccccc32)c1`: the EC50 entry is “inactive”. Same read-out and setting: to `Cc1ccnc(SCc2cc(=O)c(OC(=O)c3ccc(Cl)c([N+](=O)[O-])c3)co2)n1` belongs “inactive”; to `CC1=CC(=O)c2c(O)ccc(O)c2C1=O`, “inactive”.

In the case of `CCCCNc1nc(=S)[nH]c2cc(OC)c(OC)cc12`, the EC50 entry is “inactive”. With `O=C(Nc1ccc2nc(-c3ccco3)c(-c3ccco3)nc2c1)NC1CC1`, the EC50 was 8.3 µM. On the same count and under the same terms, then `CN1CCc2cccc3c2[C@@H]1Cc1ccc(O)c(O)c1-3`, with “inactive”.

Staying with this assay, now noted: multiplex bead flow cytometry, MCF, stronger effect = higher value, concentration not given here.
`Cn1c(CCNC(=O)C2CCCCC2)nc2cc(NC(=O)c3cccs3)ccc21`: the percent span inhibition entry is “inactive”. On to `COc1cc2c(cc1OC)C(c1ccccc1F)OC(=O)C2` (centres undefined), for which the percent span inhibition entry is “inactive”. Still for that read-out and setting: then `O=C(Nc1ccncc1)c1cc2ccccc2o1`, with “inactive”; and `O=C(O)c1cccc(NC2=C(Cl)C(=O)c3ccccc3C2=O)c1`, with “inactive”; and `COC(=O)Cc1ccc(NC(=S)N2CCN(c3cccc(O)c3)CC2)cc1`, with “inactive”. Same read-out and setting: then `Cc1nnc(Sc2cc(NCCO)c([N+](=O)[O-])c3nonc23)s1`, with “inactive”. Still for that read-out and setting: then `O=[N+]([O-])c1ccc(N2CCN(c3ccc(O)cc3)CC2)c(Cl)c1`, with “inactive”; and `COC(=O)c1[nH]c2ccccc2c1NC(=O)c1ccccc1[N+](=O)[O-]`, with “inactive”. For the compound `O=[N+]([O-])c1ccc2[nH]nc(-c3ccccc3)c2c1`, the percent span inhibition entry is “inactive”. Still for that read-out and setting: then `O=C(N/N=C/c1cccc([N+](=O)[O-])c1)c1cccs1`, with “inactive”; and `COC(=O)c1ccc(C)c(NC(=O)CCNC(=O)c2ccc([N+](=O)[O-])cc2)c1`, with “inactive”; and `CCn1c(SCC(=O)Nc2ccc(C)cc2)nnc1-c1ccc(O)cc1`, with “inactive”. Still for that read-out and setting: then `Cc1ccc(N=C2NC(=O)/C(=C/C=C/c3ccco3)S2)cc1`, with “inactive”; and `COC(=O)CSc1ncnc2c1sc1nc(-c3ccco3)c3c(c12)CC(C)(C)OC3`, with “inactive”; and `CCOc1cc(C2Nc3cccc4cccc(c34)N2)ccc1O`, with “inactive”.

Consider `Cc1cccn2c(=O)c3cc(C(N)=S)c(=N)n(CCCN4CCOCC4)c3nc12`, for which the percent span inhibition result is “inactive”. Take `COc1cc(NC(=S)NC(=O)c2cc(C)cc(C)c2)ccc1NC(=O)c1cccs1`: the percent span inhibition result is “inactive”. Regarding `CCOC(=O)c1c(NC(=O)c2ccccc2N(C)S(=O)(=O)c2ccccc2)sc2c1CCCC2`, the percent span inhibition result was “inactive”. Still for that read-out and setting: to `CCC(CC)C(=O)Nc1cccc(SC)c1` belongs “inactive”. Take `Cc1cc(C)c2c(N)c3cccc(C)c3nc2n1`: the percent span inhibition result was “inactive”. The same measure, in the same setting: to `CC(C)n1nnnc1SCC(=O)N1CCN(C(=O)c2ccco2)CC1` belongs “inactive”. For `Nc1c(C(=O)NCc2ccco2)sc2nc3c(cc12)C(=O)CCC3`, the percent span inhibition entry was “inactive”. The same measure, in the same setting: then `CC(C)c1ccc(C2CC(c3ccc(Br)cc3)=NN2C(N)=S)cc1` (centres undefined), with “inactive”; and `COc1ccccc1N(C)S(=O)(=O)c1ccc(C(=O)OCC(N)=O)cc1`, with “inactive”. With `COC(=O)c1cc(OC)c(OC)cc1NC(=O)Nc1cccc(C(C)=O)c1`, the percent span inhibition result was “inactive”.

Take `OC(COc1ccc2ccccc2c1)CN1CCCC1` (centres undefined): the percent span inhibition entry is “inactive”. The same measure, in the same setting: to `O=C(Nc1ccc(Cl)cn1)Nc1ccccc1F` belongs “inactive”; to `CCOc1ccc(N2C(=O)C(Cl)=C(Nc3ccccc3O)C2=O)cc1`, “inactive”.

Regarding `CCOc1ncccc1C(=O)OC(C)C(=O)Nc1ccc(CC)cc1` (centres undefined), the percent span inhibition result is “inactive”. Same read-out and setting: then `O=C(Cn1c2ccccc2c(=O)c2ccccc21)N/N=C/c1ccc(N2CCCC2)c([N+](=O)[O-])c1`, with “inactive”; and `O=C(Nc1nnc(SCc2ccccn2)s1)C1CC(=O)N(c2ccccc2)C1` (centres undefined), with “inactive”; and `CN(Cc1ccccc1)c1nc2c(c(=O)[nH]c(=O)n2C)n1C`, with “inactive”. For the compound `COc1cc(N=c2ssnc2Cl)c(OC)cc1Cl`, the percent span inhibition result was “inactive”. Still for that read-out and setting: then `O=C1c2ccccc2-c2onc3ccc(N4CCCC4)c1c23`, with “inactive”; and `O=C1/C(=C\c2ccc(-c3ccccc3Cl)o2)SC(=S)N1CC1CCCO1` (centres undefined), with “inactive”; and `Cn1c(=O)c2cc(S(=O)(=O)Nc3cc(C(=O)O)cc(C(=O)O)c3)ccc2n(C)c1=O`, with “inactive”. On the same count and under the same terms, to `CC(C)Cc1cc(-c2ccco2)c(C#N)c(N)n1` belongs “inactive”; to `C/C(=N\NC(=O)Cn1nc(C)c([N+](=O)[O-])c1C)c1ccc(O)cc1`, “inactive”. On to `Cc1ccccc1/C=N/Nc1ccnc2cc(Cl)ccc12`, for which the percent span inhibition result was “inactive”. Same read-out and setting: then `O=C(O)CC1S/C(=N/N=C/C=C/c2ccccc2[N+](=O)[O-])NC1=O` (centres undefined), with “inactive”. On to `Cc1ccc(-c2cc(-c3ccc(F)cc3)nc(N)c2C#N)o1`, for which the percent span inhibition entry was “inactive”.

Consider `COC(=O)c1c(NC(=O)COc2ncnc3ccccc23)sc(C)c1C`, for which the percent span inhibition result was “inactive”.

Consider `COc1ccc(CC(=O)Nc2ccc(-c3nc4cc(C)ccc4o3)c(O)c2)cc1OC`, for which the percent span inhibition entry is “inactive”. For the compound `CCN(C(=O)COC(=O)c1cc(-c2ccc(C)o2)nc2ccccc12)C1CCS(=O)(=O)C1` (centres undefined), the percent span inhibition result is “inactive”. Same read-out and setting: then `Cc1sc2nc(C(C)C)nc(SCC(=O)N3c4ccccc4CC3C)c2c1C` (centres undefined), with “inactive”. Still for that read-out and setting: then `COc1ccccc1NC(=O)CSc1ncn(-c2ccccc2)n1`, with “inactive”. `Cc1nn(-c2ccc(Cl)c(Cl)c2)c(C)c1C(=O)O`: the percent span inhibition entry was “inactive”. Consider `CCCC1(C(=O)OCC)NC(c2cc(OC)c(OC)c(OC)c2)C2C(=O)N(CC)C(=O)C21` (centres undefined), for which the percent span inhibition entry is “inactive”. On the same count and under the same terms, then `COc1ccc2nc(C)cc(SCC(=O)N/N=C/c3ccc(O)c(O)c3)c2c1`, with “inactive”; and `Cc1nnc2ccc(-c3cccc(NC(=O)c4ccco4)c3)nn12`, with “inactive”.

With `Cc1ccc(SCCC(=O)Nc2ccc(Br)c(C)c2)cc1`, the percent span inhibition entry is “inactive”.

Turning to `Cc1ccc(-c2cc(C(=O)Nc3ccccn3)c3ccccc3n2)o1`, the percent span inhibition entry is “inactive”. `CNc1ccc(Br)cc(C(=O)/C=C/c2cccc(OC)c2OC)c1=O`: the percent span inhibition result is “inactive”. In the case of `C=CCSc1nc(N)c2c(C)c(C)sc2n1`, the percent span inhibition result was “inactive”. Still for that read-out and setting: then `COc1ccc(C2CN(C)CC2C(=O)c2ccc(F)cc2)cc1Cl` (centres undefined), with “inactive”; and `Cc1ccc2c(C)c(C(=O)Nc3nnc(C)s3)oc2c1`, with “inactive”; and `COc1cc(N=c2ssnc2Cl)cc(OC)c1OC`, with “inactive”. On the same count and under the same terms, then `CNC(=O)c1sc(-c2ccccn2)nc1C`, with “inactive”. As to `O=C(NCCCO)Nc1ccc2nc(-c3ccco3)c(-c3ccco3)nc2c1`, the percent span inhibition entry is “inactive”.

With `COc1ccc(CC(=O)Nc2ccc(C(=O)Nc3nccs3)cc2)cc1OC`, the percent span inhibition entry is “inactive”. Same read-out and setting: then `CCC(=O)OCCNc1cc(Sc2nc3ccccc3[nH]2)c2nonc2c1[N+](=O)[O-]`, with “inactive”. On the same count and under the same terms, then `NCC(c1ccccc1)c1c[nH]c2ccccc12` (centres undefined), with “inactive”. Same read-out and setting: then `Clc1nssc1=Nc1ccccc1`, with “inactive”; and `CC(C)CNC(=O)c1cccc(NC(=O)c2ccc(Cl)c([N+](=O)[O-])c2)c1`, with “inactive”; and `CCOC(=O)C1CCN(C(=O)Nc2ccc3nc(-c4ccco4)c(-c4ccco4)nc3c2)CC1`, with “inactive”. With `Cc1nc2cc(F)ccc2n1C1CCN(C(=O)c2c(F)cccc2F)CC1`, the percent span inhibition result was “inactive”.

Regarding `Cc1cc(C)nc(/N=C(\N)N2CCc3ccccc32)n1`, the percent span inhibition result was “inactive”.

As for `COc1ccc2c3c(cccc13)N(C)N=C2C`, the percent span inhibition entry is “inactive”. As for `O=C(NCC1CCCO1)c1ccc2c(=O)n(-c3ccc(F)cc3)c(=S)[nH]c2c1` (centres undefined), the percent span inhibition entry was “inactive”. On to `O=C(Nc1ccc(N2CCOCC2)cc1)Nc1ccc2nc(-c3ccco3)c(-c3ccco3)nc2c1`, for which the percent span inhibition entry is “inactive”.

Take `O=C(C1=NN[C@@H]2C(=O)N(c3ccccc3C(F)(F)F)C(=O)[C@H]12)c1ccc2ccccc2n1`: the percent span inhibition result was “inactive”. On the same count and under the same terms, to `COC(=O)/C(=C/c1ccc(F)cc1)NC(C)=O` belongs “inactive”. On the same count and under the same terms, to `CC1(C)SC(=S)N(NC(=O)Nc2ccccc2)C1N(O)C(=O)Nc1cccc2ccccc12` (centres undefined) belongs “inactive”. On the same count and under the same terms, to `Cc1ccc(-c2ccc(/C=C3\SC(N4CCOCC4)=NC3=O)o2)cc1` belongs “inactive”; to `O=C(COC(=O)CCCN=C1NS(=O)(=O)c2ccccc21)NC(=O)NC1CCCC1`, “inactive”; to `CNCc1ccccc1Sc1cc(O)ccc1O`, “inactive”. Turning to `CC(=O)NC(=O)Nc1sc(=S)n(C)c1C`, the percent span inhibition result is “inactive”. On the same count and under the same terms, then `O=C(c1ccc(CNS(=O)(=O)c2ccc(Br)cc2)cc1)N1CCCC1`, with “inactive”; and `O=C1/C(=C/c2cccs2)Sc2ccccc21`, with “inactive”; and `O=C(O)/C=C/C(=O)NNC(=O)c1ccc(Br)cc1`, with “inactive”. On the same count and under the same terms, then `CC(NCc1ccc(-c2ccccc2)cc1)C(O)c1ccccc1` (centres undefined), with “inactive”; and `CCOc1ccc(C(=O)Nc2nnc(NC(=S)Nc3ccccc3)s2)cc1`, with “inactive”; and `Clc1ccc(N=c2ssnc2Cl)nc1`, with “inactive”.
